Data as given in patent US20090062370A1, “Method for increasing the speed of recovery and/or the speed of wound healing of injured animals” (priority 2005, published 2009).

Experiments:
wounded animals = assay: Feeding of wounded animals with supplemented feed (general description, daily intake titration); format: in vivo
Text: Phytohormones and beta-glucans appeared to work in a wide range of concentrations for improving the speed of wound healing in animals. The optimal concentrations may vary between different species, however, the skilled person will know how to obtain an optimal concentration for a given species, for instance by titration of the desired compound into the animal feed and testing when this would have the optimal effect. The following may serve as guidance in this process.
A skilled person will appreciate that the amount of free IAA in the ready to use feed has to be adjusted in order to supply the animal with an effective amount of free IAA. In order to adjust the free IAA concentration in the feed so that a certain daily intake of free IAA is achieved, an estimate has to be made of the feed intake of an animal or animal group. A skilled person is aware of the feed intake of a (particular kind or group of) animal(s), typically, the feed intake per day is between 0.5 and 10% of the body weight of the animal, with occasional exceptions as high as 20%. Elderly animals tend to eat less and are considered to have a feed intake per day between 0.1 and 5%, typically of 1% of their body mass.

[1] = system: koi fish suffering from wounds as a result of parasites; assay: Wound healing of koi fish in ponds fed fish feed according to the invention; format: in vivo; conditions: scale 1 (very slow recovery) to 5 (very fast recovery)
Text: Four ponds of 40 cubic meters each, each containing 50 koi fish with an approximate total body weight of 50 kg were used to establish the effect of the fish feed according to the invention on wound healing. One pond (pond 1) served as a control were the fish were fed with control feed, the fish in the other ponds received a feed according to the invention as prepared in examples 6 to 8 above.
The fish in control pond were fed with 10 gram Cyprico White 3 mm floater feed per day, whereas the fish in the other ponds were fed with 10 gram of the feed as described in Example 2, 3 and 4 (Table 2). About 10% of all fish suffered from wounds as a result of parasites.
The veterinarian filled in a questionnaire on the recovery process of the fish, Table 3. Criterion was the speed of disappearance of the wounds. This criterion was scored on a scale ranging from 1 to 5 wherein 1 was very slow recovery and 5 very fast recovery. This criterion was scored 1, 2, 4, 7 and 21 days of feeding.

humans = conditions: single doses of 0.1 g/kg body weight; cited from earlier work
fibroblasts = conditions: cited from earlier work
surgical wound = conditions: oral supplementation of 50 mg of zinc three times per day, as zinc sulfate; cited from earlier work

Compound: 1.3 and 1.6 beta glucans
- optimal daily intake (optimal results / optimum between cost and benefit) (wounded animals; in feed): around 5 mg/kglw/day

Compound: O=C(O)Cc1c[nH]c2ccccc12 [free IAA, indole-3-acetic acid]
- Wound healing score ([1]; 1 day of feeding): 1
- Wound healing score ([1]; 2 days of feeding): 1
- Wound healing score ([1]; 4 days of feeding): 2
- Wound healing score ([1]; 7 days of feeding): 3
- Wound healing score ([1]; 21 days of feeding): 4
- effect on recovery of wounded animals (wounded animals; feed with 0.4 mg/kglw/day): very effective
- toxicity of single doses (humans): non-toxic
- effect on the migration of fibroblasts in vitro (fibroblasts): had an effect

Compound: C=C1C[C@]23C[C@@]1(O)CC[C@H]2[C@@]12C=C[C@H](O)[C@@](C)(C(=O)O1)[C@H]2[C@@H]3C(=O)O [gibberellin, gibberellic acid]
- effect on the migration of fibroblasts in vitro (fibroblasts): not

Compound: O=S(=O)([O-])[O-].[Zn+2] [zinc, zinc sulfate]
- reduction of healing time of a surgical wound (surgical wound): 43%
